# Laboratory results from patent US20070243182A1, “Use of Carboxypeptidease G for Combating Antifolate Toxicity” (Protherics Medicines Development Limited, priority 2004, published 2007).
# Like-named read-outs stand apart in the source and are kept apart here.
# Assays:
# CPG2 [1] = target: T1, CPG2 (Pseudomonas sp., UniProt P06621); conditions: substrate of CPG2; Sherwood et al (1985); cited from earlier work
# CPG2 [2] = target: T1, CPG2; assay type: biochemical, Pseudomonas sp. strain RS-16
# Description: (§1) A stock solution of 10 mM Tomudex in 100 mM Tris-HCl pH7.3 was prepared and used to prepare a series of dilutions from 0-100 μM in 100 mM Tris-HCl pH 7.3. 990 μl of each dilution was placed in a quartz cuvette and pre-warmed to 37° C. 10 μl of enzyme solution was added to initiate the reaction and the progress of the reaction was followed by measuring the rate of change in absorbance at 356 nm.
# Measurement of the rate of reaction at a range of substrate concentrations, from 1-100 μM allows the Km and kcat for the enzyme to be determined using appropriate computer software such as “Enzfitter” (Biosoft; Cambridge, UK).
# as §1, with “LY309887” for “Tomudex”, “is” for “was”, “pre-warned” for “pre-warmed”, “a suitable wavelength. […] Measurement of the rate of reaction at a range of substrate concentrations, from 1-100 μM allows the Km and kcat for the enzyme to be determined using Enzfitter computer software.” for “356 nm.”
# as §1, with “AG2034” for “Tomudex”, “is” for “was”, “a suitable wavelength. […] Measurement of the rate of reaction at a range of substrate concentrations, from 1-100 μM allows the Km and kcat for the enzyme to be determined using Enzfitter computer software.” for “356 nm.”
# as §1, with “AG2037” for “Tomudex”, “is” for “was”, “a suitable wavelength. […] Measurement of the rate of reaction at a range of substrate concentrations, from 1-100 μM allows the Km and kcat for the enzyme to be determined using Enzfitter computer software.” for “356 nm.”
# [3] = 3-weekly schedule, paediatric population; cited from earlier work
# [4] = Rescue of Tomudex toxicity in a patient by administration of CPG2 (with or without thymidine); assay type: in vivo; conditions: thymidine given together with CPG2 to a patient with toxic plasma levels of Tomudex
# Description: A patient who has been administered Tomudex and has toxic plasma levels of Tomudex is administered a dose of 50 Units per kg body weight of CPG2 by intravenous injection over a period of about 5 minutes.
# A patient who has been administered Tomudex and has toxic plasma levels of Tomudex is administered a dose of 50 Units per kg body weight of CPG2 by intravenous injection over a period of about 5 minutes and is also administered thymidine.
# bone marrow cells = conditions: MTX 100 μM, leucovorin calcium 1,000 μM; cited from earlier work
# [5] = example in present tense, no values given
# [6] = substrate of CPG2, spectrophotometric assay, 100 mM Tris-HCl pH 7.3, 37° C., 356 nm
# T1 sequence (P06621 23-415): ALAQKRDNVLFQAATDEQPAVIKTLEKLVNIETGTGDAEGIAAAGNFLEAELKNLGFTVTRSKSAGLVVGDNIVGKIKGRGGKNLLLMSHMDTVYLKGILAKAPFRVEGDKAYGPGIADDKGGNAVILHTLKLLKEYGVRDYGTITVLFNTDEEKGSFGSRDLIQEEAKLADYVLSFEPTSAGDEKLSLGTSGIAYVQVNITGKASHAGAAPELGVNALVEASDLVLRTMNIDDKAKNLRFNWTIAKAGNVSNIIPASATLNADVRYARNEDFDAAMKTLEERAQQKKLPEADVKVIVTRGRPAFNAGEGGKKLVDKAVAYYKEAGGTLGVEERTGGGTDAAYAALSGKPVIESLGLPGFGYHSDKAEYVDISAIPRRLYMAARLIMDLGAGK
compound,measurement,setting,value
Nc1nc2ncc(CNc3ccc(C(=O)N[C@@H](CCC(=O)O)C(=O)O)cc3)nc2c(=O)[nH]1 [folate],Km,CPG2 [1],4 µM
"Nc1nc2c(c(=O)[nH]1)N(C=O)C(CNc1ccc(C(=O)N[C@@H](CCC(=O)O)C(=O)O)cc1)CN2 (some centres unmarked) [5-formyl TIE, 5-formyl tetrahydrofolic acid]",Km,CPG2 [1],120 µM
Nc1nc2c(c(=O)[nH]1)C[C@@H](CCc1ccc(C(=O)N[C@@H](CCC(=O)O)C(=O)O)s1)CN2 [LY309887],substrate of CPG2 (contacted with CPG2 in vitro),CPG2 [2]; [5],found to be a substrate of CPG2
CN1c2c(nc(N)[nH]c2=O)NCC1CNc1ccc(C(=O)N[C@@H](CCC(=O)O)C(=O)O)cc1 (some centres unmarked) [5-methyl THF],Km,CPG2 [1],34 µM
Cc1nc2ccc(CN(C)c3ccc(C(=O)N[C@@H](CCC(=O)O)C(=O)O)s3)cc2c(=O)[nH]1 [Tomudex],substrate of CPG2 (contacted with CPG2 in vitro),CPG2 [2],found to a substrate of CPG2
same,Km,CPG2 [2]; [6],7.8 µM
same,kcat,CPG2 [2]; [6],24 s⁻¹
same,maximum tolerated dose,[3],6 mg/m^2
Cc1cn([C@H]2C[C@H](O)[C@@H](CO)O2)c(=O)[nH]c1=O [thymidine],rescue of cellular toxicity associated with Tomudex,[4],rescues the cellular toxicity associated with the Tomudex
"Nc1nc(=O)c2c([nH]1)NCC(CNc1ccc(C(=O)N[C@@H](CCC(=O)[O-])C(=O)[O-])cc1)N2C=O.[Ca+2] (some centres unmarked) [leucovorin calcium, calcium salt of 5-formyl tetrahydrofolic acid]",protection of bone marrow cells from MTX toxicity,bone marrow cells,unable to protect bone marrow cells from toxicity
Cc1cc(C(=O)N[C@@H](CCC(=O)O)C(=O)O)sc1CC[C@@H]1CNc2nc(N)[nH]c(=O)c2C1 [AG2037],substrate of CPG2 (contacted with CPG2 in vitro),CPG2 [2]; [5],found to be a substrate of CPG2
